Patent publication US9227919B2, “Arylalkylamine compounds as calcium sensing receptor modulators” (Lupin Limited, priority 2012, dated 2016)
pEC50: −log10 of the molar value. Counter-ions that a name gives are not always drawn.

molecular target: T1, Calcium Sensing Receptor (CaSR) (Homo sapiens, UniProt P41180); experiment: In-vitro assay of calcimimetics through modulation of Calcium Sensing Receptor (intracellular calcium increase, FLIPR); type: cell-based; conditions: stably transfected HEK293 cells expressing hCaSR; Fluo4NW dye; 0.3 mM CaCl2; 8-point assay; read-out: EC50 Range
T1 construct: expressed in transfected cells
T1 sequence (P41180 20-1078): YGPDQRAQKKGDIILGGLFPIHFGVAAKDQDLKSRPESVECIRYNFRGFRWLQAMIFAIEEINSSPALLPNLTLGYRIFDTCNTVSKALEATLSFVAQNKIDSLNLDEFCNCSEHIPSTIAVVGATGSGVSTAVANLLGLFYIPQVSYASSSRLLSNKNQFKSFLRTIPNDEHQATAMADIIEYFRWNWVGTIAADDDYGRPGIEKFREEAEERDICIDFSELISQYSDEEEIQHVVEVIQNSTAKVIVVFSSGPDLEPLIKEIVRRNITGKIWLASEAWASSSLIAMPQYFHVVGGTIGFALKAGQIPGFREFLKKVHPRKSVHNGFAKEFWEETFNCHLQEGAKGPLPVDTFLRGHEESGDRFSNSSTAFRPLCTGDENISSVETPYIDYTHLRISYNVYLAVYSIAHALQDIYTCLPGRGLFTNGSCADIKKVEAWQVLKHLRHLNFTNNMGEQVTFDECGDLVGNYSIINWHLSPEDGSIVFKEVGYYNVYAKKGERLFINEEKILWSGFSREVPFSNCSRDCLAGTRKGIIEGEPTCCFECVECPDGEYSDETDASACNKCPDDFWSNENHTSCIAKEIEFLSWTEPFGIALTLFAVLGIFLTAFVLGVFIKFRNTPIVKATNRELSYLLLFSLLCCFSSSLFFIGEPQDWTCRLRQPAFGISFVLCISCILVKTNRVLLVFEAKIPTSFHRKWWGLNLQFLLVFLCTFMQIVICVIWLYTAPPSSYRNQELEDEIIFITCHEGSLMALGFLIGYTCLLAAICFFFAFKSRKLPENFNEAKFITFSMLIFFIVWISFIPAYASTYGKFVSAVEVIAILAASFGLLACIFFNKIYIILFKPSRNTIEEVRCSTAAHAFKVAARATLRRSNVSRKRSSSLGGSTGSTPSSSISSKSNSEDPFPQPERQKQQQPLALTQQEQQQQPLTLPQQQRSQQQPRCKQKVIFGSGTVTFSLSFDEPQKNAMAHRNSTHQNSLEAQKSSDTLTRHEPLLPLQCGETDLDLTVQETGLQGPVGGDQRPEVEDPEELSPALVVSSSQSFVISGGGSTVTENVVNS
Experimental: Certain illustrative compounds within the scope of the invention are screened for CaSR activity according to the procedure given below. The screening of the compounds may also be carried by other methods and procedures known to skilled in the art.
In-vitro assay method of Calcimimetics through modulation of Calcium Sensing Receptor (CaSR):
The ability of the compounds to modulate Calcium sensing receptor is determined by measuring an increase in intracellular calcium [Ca^2+]i. Stably transfected HEK293 cells expressing hCaSR_pTriEx-3 hygro vector are developed. Cells are grown overnight on a 96-well plate to 80% confluency in Ham's F12 containing 20% FBS at 37° C., 5% CO2. Subsequently, cells are washed extensively with 20 mM HEPES buffer containing 126 mM […], 1 mM MgCl2 and 4 mM KCl to remove serum components that might interfere with the assay. Cells are loaded with calcium sensing Fluo4NW dye in HEPES base buffer containing 0.1% BSA and lmg/ml glucose for 30 minutes to measure changes in intracellular calcium. The activities of the compounds are measured in FLIPR using 0.3 mM CaCl2 in 20 mM HEPES base buffer. The effectiveness of the compound to modulate receptor activity is determined by calculating the EC50 responses for that compound in an 8-point assay and plotted using GraphPad Prism 5.
The compounds prepared were tested using the above assay procedure and the results obtained are given below.

| pEC50 | Compound |
| --- | --- |
| > 7.70 | COc1cc([C@@H](C)NCC2Cc3ccccc3N(c3ccc(C)c(C(=O)O)c3)C2)ccc1F (single isomer, unassigned) [Example 73a, hydrochloride] |
| 7.30 to 7.70 | Cc1ccc(N2CC(CN[C@H](C)c3ccc(F)c4ccccc34)Cc3ccccc32)cc1C(=O)O (single isomer, unassigned) [Example 72b, hydrochloride] |
| > 7.70 | Cc1ccc(N2C[C@@H](CN[C@H](C)c3cccc4ccccc34)Cc3ccccc32)cc1C(=O)O [Example 69a, 2-Methyl-5-(3-((((R)-1-(naphthalen-1-yl)ethyl)amino)methyl)-3,4-dihydroquinolin-1(2H)-yl)benzoic acid hydrochloride] |
| 6.70 to 7.30 | Cc1ccc(C(=O)O)cc1C1C[C@H](CN[C@H](C)c2cccc3ccccc23)Cc2ccccc21 (single isomer, unassigned) [Example 14a, hydrochloride] |
| 7.30 to 7.70 | Cc1cc(C2C[C@H](CN[C@H](C)c3cccc4ccccc34)Cc3ccccc32)ccc1C(=O)O (single isomer, unassigned) [Example 13a, hydrochloride] |
| > 7.70 | Cc1ccc(C2CC(CN[C@H](C)c3cccc4ccccc34)Cc3ccccc32)c(C)c1C(=O)O (single isomer, unassigned) [Example 10a, hydrochloride] |
